From patent US20250118786A1, “LONG-LIVED REDOX-ACTIVE MOLECULES WITH LOW REDOX POTENTIAL” (President and Fellows of Harvard College, priority 2021, published 2025) come the findings set out here.

In general, solubility refers to the dissolved amount per volume that the medium holds.

The nature of data set [1]: Solubility in water and salt solutions. The format is physicochemical.
Data set [2] is described as follows: Cyclic voltammetry (three-electrode system). Format: physicochemical. How it is done:
A glassy carbon (BASi, 3 mm diameter) working electrode, an Ag/AgCl reference electrode (BASi, 3 M NaCl solution), and a graphite counter electrode were used in the three-electrode system for all CV tests. The scan rates for CV tests were 10, 20, 50, 100, and 200 mV s^−1. The diffusion coefficient D was calculated based on the Randles-Sevcik equation: Ip=269000×n^1.5 AD^0.5v^0.5C, where Ip is the peak current in amps, n is the number of electrons involved (n=2 for 2,6-N-TSAQ) in the redox reaction, A is the active surface area (0.0707 cm^2), D is the diffusion coefficient in cm^2/s, v is the scan rate in V/s, and C is the concentration of redox species in mol/cm^3.
The reduction potential of 2,6-N-TSAQ is-0.62 V vs. SHE in 1M NaCl, which is 120 mV and 170 mV lower than that of 2,6-O-DPSAQ and 2,6-DPSAQ in 1M NaCl, respectively. The low redox potential of 2,6-N-TSAQ is attributed to the strong electron donating effect of N-alkyl group. It contributes to form a high working voltage and high power density flow battery. […] The ammonium cation, however, sacrifices the redox potential of 2,6-N-TSAQ as the local pH is always lower than the pKa2 of 9,10-dihydroxyanthracene, which is also observed in the reported 9,10-anthraquinone-2,7-disulfonic diammonium salt.

The nature of data set [3]: Long-term cycling of 0.1 M 2,6-N-TSAQ/ferrocyanide flow cell. How it is done: Flow battery experiments were performed with cell and hardware from Fuel Cell Tech. (Albuquerque, NM). Pyrosealed POCO graphite flow plates with serpentine flow designs were used for both electrodes. Each electrode comprised a single 5 cm^2 geometric surface area sheet of AvCarb carbon electrode. For 2,6-N-TSAQ/ferrocyanide full cell tests, a Nafion™ 212 membrane was used to serve as the ion-selective membrane. The Nafion membrane was soaked in the supporting electrolyte (sodium hydroxide or sodium chloride) for at least 24 hours before use. Viton sheets were used to cover the outer portion space between the electrodes. Torque used for cell assembly was 60 lb-in (6.78 Nm) on each of eight 1/4-28 bolts. The electrolytes were fed into the cell through fluorinated ethylene propylene (FEP) tubing at a rate of 60 mL/min, controlled by Cole-Parmer 6 Masterflex L/S peristaltic pumps. The cell was run inside a glove box (1 ppm O2). Cell polarization measurements and charge-discharge cycling were conducted using a Biologic BCS-815 battery cycler. […] The polarization curves were obtained by charging to a desired state of charge first and then polarizing via linear sweep voltammetry at a rate of 100 mV s^−1.
Long-term cycling testing of 0.1 M 2,6-N-TSAQ/ferrocyanide was performed with the same cell. The cell was cycled at 40 mA cm^2 with potential holds at 1.4 V for charging and 0.6 V for discharging until the current density dropped to 2 mA cm^−2. The initial discharge capacity was 4.764 Ah L^−1, corresponding to a capacity utilization of 88.9% of the theoretical value. However, the OCV at different SOC values in FIG. 8 (a) and the typical voltage profile in FIG. 9 (c) indicates it accesses the complete capacity of 2,6-N-TSAQ under such conditions. The differences between the actual capacity and the theoretical value could come from non-redox active impurities such as water or salts in the sample. […] The average coulombic efficiency was determined to be above 99.9%. […]

Data set [4] in a line: Storage in 1 M NaCl at 65° C. for 8 days, 1H NMR. The format is physicochemical. The text has this:
For comparison, the long-term cycling of the 0.1 M 2,6-N-TSAQ/ferrocyanide cell was operated at neutral condition (1 M sodium chloride) but, otherwise, the same conditions. The initial volumetric capacity was 4.774 Ah L^−1, which is similar to that at pH 14. After 2.84 days cycling, the discharge capacity dropped to 4.412 Ah/L, corresponding to a capacity fade rate of 2.6%/day, which is around 2 orders magnitude higher than that at pH 14. And the coulombic efficiency is around 99.8% over the whole cycling process, which is slightly lower than that at pH 14. […] To investigate the origin of instability of 2,6-N-TSAQ at neutral condition, both oxidized and reduced forms of 2,6-N-TSAQ were stored in 1 M NaCl at 65° C. for 8 days.

Where [5] appears, read: water, read-out: water solubility.

Read-outs that look alike come from different tables or passages of the source. Where only a bound is given, the exact number is not on record here.

Regarding `O=C1c2ccc(CCCS(=O)(=O)[O-])cc2C(=O)c2ccc(CCCS(=O)(=O)[O-])cc21.[Na+].[Na+]` [2,6-DPSAQ, sodium 3,3′-(9,10-anthraquinone-2,6-diyl)bis(propane-1-sulfonate)], in data set [1] (setting [5]), the solubility was found to be 300 mM.

`O=C1c2ccc(N(CCCS(=O)(=O)O)CCCS(=O)(=O)O)cc2C(=O)c2ccc(N(CCCS(=O)(=O)O)CCCS(=O)(=O)O)cc21` [2,6-N-TSAQ, sodium 3,3′,3″,3′″-((9,10-anthraquinone-2,6-diyl)bis(azanetriyl))tetrakis(propane-1-sulfonate)] displayed a reduction potential in data set [2] (1M NaCl (unbuffered)) of −0.62 V vs. SHE. Also, the “reduction potential lower than that of 2,6-DPSAQ” value in data set [2] (difference versus 2,6-DPSAQ) stood at 170 mV. The “reduction potential lower than that of 2,6-O-DPSAQ” value in data set [2] (difference versus 2,6-O-DPSAQ) was 120 mV. Further, the solubility in data set [1] (water, with ammonium ion exchange, read-out: solubility) was 650 mM; in data set [1] (setting [5]) it was 450 mM. In data set [3] (neutral condition (1 M sodium chloride), 0.1 M, 2.84 days cycling), this compound came in with a capacity fade rate of 2.6 %/day. Further, the “cycle-denominated capacity fade rate” value in data set [3] (pH 14, 0.1 M, full SOC range cycling) is given as 0.00024 %/cycle. Besides, the “temporal capacity fade rate” value in data set [3] (pH 14, 0.1 M, full SOC range cycling, 9 days) is reported as 0.025 %/day. Further, the “decomposition by 1H NMR, oxidized state” value in data set [4] (oxidized form) is on record as “no apparent decomposition”. Also, the “decomposition by 1H NMR, reduced state” value in data set [4] (reduced form) is recorded as “a large quantity of decomposition”.

For `O=C1c2ccc(OCCCS(=O)(=O)[O-])cc2C(=O)c2ccc(OCCCS(=O)(=O)[O-])cc21.[Na+].[Na+]` [2,6-O-DPSAQ, sodium 3,3′-((9,10-anthraquinone-2,6-diyl)bis(oxy))bis(propane-1-sulfonate)], the solubility is 10 mM in data set [1] (1 M lithium chloride, saline or isotonic, 1 M lithium chloride, read-out: solubility); less than 5 mM in data set [1] (1 M sodium chloride, saline or isotonic, 1 M sodium chloride, read-out: solubility); 10 mM in data set [1] (deionized water, water, deionized water, read-out: solubility).
